# Experimental data from US8183239B2, “Substituted piperazines and piperidines as modulators of the neuropeptide Y2 receptor” (Janssen Pharmaceutica NV, priority 2005, dated 2012).
# Molecular target: T1, Y2 receptors (Homo sapiens, UniProt P49146)
# T1 construct: endogenous in cells; host or cells: KAN-Ts cells (membranes)
# T1 sequence (P49146 1-381): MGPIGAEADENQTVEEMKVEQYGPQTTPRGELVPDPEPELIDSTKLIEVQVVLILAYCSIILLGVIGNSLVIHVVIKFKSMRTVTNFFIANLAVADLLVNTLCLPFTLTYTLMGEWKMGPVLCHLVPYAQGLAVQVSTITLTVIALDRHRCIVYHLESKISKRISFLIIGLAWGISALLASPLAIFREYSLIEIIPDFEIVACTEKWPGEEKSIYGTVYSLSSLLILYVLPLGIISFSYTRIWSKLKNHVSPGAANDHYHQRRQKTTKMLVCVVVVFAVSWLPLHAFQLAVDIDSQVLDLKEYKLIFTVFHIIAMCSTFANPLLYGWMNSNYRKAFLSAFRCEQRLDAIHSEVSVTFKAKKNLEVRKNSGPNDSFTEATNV
# Experiment: Radioligand binding assay ([125I]PYY, KAN-Ts cell membranes)
# Details: Table 2, [125I]PYY 80 pM, average of results, read-out: IC50
# In short: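 IC50 values are means of three to eight experiments run in duplicate, fitted sigmoidally against specific binding (defined by […]). Competition used 80 pM [^125I]PYY for 1 h at room temperature on KAN-Ts membranes carrying native Y2, with filtration and scintillation counting.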
row,Structure (SMILES),IC50 [nM]
1,"CCC(CC)C(=O)Nc1ccc(N2CCN(C(C(=O)N(CC)CC)c3ccc(C#N)cc3)CC2)c(F)c1 (stereo not shown) [Example 254, N-(4-{4-[(4-Cyano-phenyl)-diethylcarbamoyl-methyl]-piperazin-1-yl}-3-fluoro-phenyl)-2-ethyl-butyramide]",44
2,"CCOc1ccc(C(C(=O)N(CC)CC)N2CCN(c3ccc(NC(=O)C(CC)CC)cc3F)CC2)cc1 (stereo not shown) [Example 255, N-(4-{4-[Diethylcarbamoyl-(4-ethoxy-phenyl)-methyl]-piperazin-1-yl}-3-fluoro-phenyl)-2-ethyl-butyramide]",44
3,"CCC(CC)C(=O)Nc1ccc(N2CCN(C(C(=O)N(CC)CC)c3ccc(OC(F)(F)F)cc3)CC2)c(F)c1 (stereo not shown) [Example 256, N-(4-{4-[Diethylcarbamoyl-(4-trifluoromethoxy-phenyl)-methyl]-piperazin-1-yl}-3-fluoro-phenyl)-2-ethyl-butyramide]",26
4,"CCC(CC)C(=O)Nc1ccc(N2CCN(C(C)c3ccccc3)CC2)c(F)c1 (stereo not shown) [Example 267, 2-Ethyl-N-{3-fluoro-4-[4-(1-phenyl-ethyl)-piperazin-1-yl]-phenyl}-butyramide]",1270
5,"CCC(CC)C(=O)Nc1ccc(N2CCN(Cc3ccccc3)CC2)c(F)c1 [Example 268, N-[4-(4-Benzyl-piperazin-1-yl)-3-fluoro-phenyl]-2-ethyl-butyramide]",1400
6,"CCC(CC)C(=O)Nc1ccc(N2CCN(Cc3ccc4c(c3)OCO4)C(C(=O)OC)C2)c(F)c1 (stereo not shown) [Example 270, 1-Benzo[1,3]dioxol-5-ylmethyl-4-[4-(2-ethyl-butyrylamino)-2-fluoro-phenyl]-piperazine-2-carboxylic acid methyl ester]",3000
7,"CCC(CC)C(=O)Nc1ccc(N2CCN(Cc3ccccc3)C(C(=O)OC)C2)c(F)c1 (stereo not shown) [Example 271, 1-Benzyl-4-[4-(2-ethyl-butyrylamino)-2-fluoro-phenyl]-piperazine-2-carboxylic acid methyl ester]",4000
8,"CCC(CC)C(=O)Nc1ccc(N2CC3CC2CN3C(C(=O)N(CC)CC)c2ccccc2)c(F)c1 (stereo not shown) [Example 272, N-{4-[5-(Diethylcarbamoyl-phenyl-methyl)-2,5-diaza-bicyclo[2.2.1]heptyl]-3-fluoro-phenyl}-2-ethyl-butyramide]",4000
9,"CCC(CC)C(=O)Nc1ccc(N2CCN(Cc3cc(F)cc(F)c3)C(C(=O)OC)C2)c(F)c1 (stereo not shown) [Example 273, 1-(3,5-Difluoro-benzyl)-4-[4-(2-ethyl-butyrylamino)-2-fluoro-phenyl]-piperazine-2-carboxylic acid methyl ester]",7000
10,"CCN(CC)C(=O)C(c1ccccc1)N1CCN(c2ccc(N3CCCC3=O)cc2F)CC1 (stereo not shown) [Example 274, N,N-Diethyl-2-{4-[2-fluoro-4-(2-oxo-pyrrolidin-1-yl)-phenyl]-piperazin-1-yl}-2-phenyl-acetamide]",1600

# More lines, in order of falling IC50, values ahead:
row,IC50 [nM],Structure (SMILES)
1,785,"CCC(CC)C(=O)Nc1ccc(N2CCN(C(CO)c3ccccc3)CC2)c(F)c1 (stereo not shown) [Example 266, 2-Ethyl-N-{3-fluoro-4-[4-(2-hydroxy-1-phenyl-ethyl)-piperazin-1-yl]-phenyl}-butyramide]"
2,550,"CCC(CC)C(=O)Nc1ccc(N2CCN(C(C(=O)OC)c3ccccn3)CC2)c(F)c1 (stereo not shown) [Example 264, {4-[4-(2-Ethyl-butyrylamino)-2-fluoro-phenyl]-piperazin-1-yl}-pyridin-2-yl-acetic acid methyl ester]"
3,540,"CCN(CC)C(=O)C(c1ccccc1)N1CCN(c2ccc(CC(=O)N3C(C)CCC3C)cc2F)CC1 (stereo not shown) [Example 279, 2-(4-{4-[2-(2,5-Dimethyl-pyrrolidin-1-yl)-2-oxo-ethyl]-2-fluoro-phenyl}-piperazin-1-yl)-N,N-diethyl-2-phenyl-acetamide]"
4,320,"CCC1CCCCN1C(=O)Cc1ccc(N2CCN(C(C(=O)N(CC)CC)c3ccccc3)CC2)c(F)c1 (stereo not shown) [Example 277, N,N-Diethyl-2-(4-{4-[2-(2-ethyl-piperidin-1-yl)-2-oxo-ethyl]-2-fluoro-phenyl}-piperazin-1-yl)-2-phenyl-acetamide]"
5,320,"CCN(CC)C(=O)C(c1ccccc1)N1CCN(c2ccc(CC(=O)N(C)Cc3ccco3)cc2F)CC1 (stereo not shown) [Example 278, N,N-Diethyl-2-(4-{2-fluoro-4-[(furan-2-ylmethyl-methyl-carbamoyl)-methyl]-phenyl}-piperazin-1-yl)-2-phenyl-acetamide]"
6,250,"CCC(CC)C(=O)Nc1ccc(N2CCN(C(C(=O)OC)c3ccc(OC)cc3)CC2)c(F)c1 (stereo not shown) [Example 263, {4-[4-(2-Ethyl-butyrylamino)-2-fluoro-phenyl]-piperazin-1-yl}-(4-methoxy-phenyl)-acetic acid methyl ester]"
7,200,"CCN(CC)C(=O)C(c1ccccc1)N1CCN(c2ccc(CC(=O)N3CCCC3c3ccccc3)cc2F)CC1 (stereo not shown) [Example 276, N,N-Diethyl-2-(4-{2-fluoro-4-[2-oxo-2-(2-phenyl-pyrrolidin-1-yl)-ethyl]-phenyl}-piperazin-1-yl)-2-phenyl-acetamide]"
8,162,"CCC(CC)C(=O)Nc1ccc(N2CCN(C(C(=O)OC)c3ccc(O)cc3)CC2)c(F)c1 (stereo not shown) [Example 262, {4-[4-(2-Ethyl-butyrylamino)-2-fluoro-phenyl]-piperazin-1-yl}-(4-hydroxy-phenyl)-acetic acid methyl ester]"
9,145,CCC(CC)C(=O)Nc1ccc(N2CCN(C(C(=O)N(CC)CC)c3ccccc3)CC2C)c(F)c1 (stereo not shown) [Example 258]
10,142,"CCN(CC)C(=O)C(c1ccccc1)N1CCN(c2ccc(CC(=O)N3CCCCC3c3ccccc3)cc2F)CC1 (stereo not shown) [Example 275, N,N-Diethyl-2-(4-{2-fluoro-4-[2-oxo-2-(2-phenyl-piperidin-1-yl)-ethyl]-phenyl}-piperazin-1-yl)-2-phenyl-acetamide]"
11,130,"CCC(CC)C(=O)Nc1ccc(N2CCN(C(C(=O)N3CCC(F)(F)C3)c3ccccn3)CC2)c(F)c1 (stereo not shown) [Example 261, N-(4-{4-[2-(3,3-Difluoro-pyrrolidin-1-yl)-2-oxo-1-pyridin-2-yl-ethyl]-piperazin-1-yl}-3-fluoro-phenyl)-2-ethyl-butyramide]"
12,102,"CCC(CC)C(=O)Nc1ccc(N2CCN(C(C(=O)N(CC)CC)c3ccc(Cl)cc3)CC2)c(F)c1 (stereo not shown) [Example 253, N-(4-{4-[(4-Chloro-phenyl)-diethylcarbamoyl-methyl]-piperazin-1-yl}-3-fluoro-phenyl)-2-ethyl-butyramide]"
13,100,"CCC(CC)C(=O)Nc1ccc(N2CCN(C(C(=O)N(CC)CC)c3ccccn3)CC2)c(F)c1 (stereo not shown) [Example 260, N-{4-[4-(Diethylcarbamoyl-pyridin-2-yl-methyl)-piperazin-1-yl]-3-fluoro-phenyl}-2-ethyl-butyramide]"
14,70,"CCC(CC)C(=O)Nc1ccc(N2CCN(C(C(=O)c3ccccc3)c3ccccc3)CC2)c(F)c1 (stereo not shown) [Example 259, 2-Ethyl-N-{3-fluoro-4-[4-(2-oxo-1,2-diphenyl-ethyl)-piperazin-1-yl]-phenyl}-butyramide]"
15,68,"CCC(CC)C(=O)Nc1ccc(N2CCN(C(C(=O)N(CC)CC)c3ccccc3)C(C)C2)c(F)c1 (stereo not shown) [Example 257, N-{4-[4-(Diethylcarbamoyl-phenyl-methyl)-3-methyl-piperazin-1-yl]-3-fluoro-phenyl}-2-ethyl-butyramide]"
